According to patent US11878975B2, “Substituted indole compounds useful as TLR inhibitors” (BRISTOL-MYERS SQUIBB COMPANY, priority 2017, dated 2024):

Key:
Assay type in all cases: cell-based
human TLR7 = target: T1, human TLR7 (Homo sapiens, UniProt Q9NYK1); experiment: TLR7 inhibition reporter assay (HEK-Blue cells, SEAP reporter, gardiquimod stimulation); settings: HEK-Blue cells overexpressing human TLR7, SEAP reporter, gardiquimod 7.5 μM
T1 construct: host or cells: HEK-Blue cells
T1 sequence (Q9NYK1 27-1049): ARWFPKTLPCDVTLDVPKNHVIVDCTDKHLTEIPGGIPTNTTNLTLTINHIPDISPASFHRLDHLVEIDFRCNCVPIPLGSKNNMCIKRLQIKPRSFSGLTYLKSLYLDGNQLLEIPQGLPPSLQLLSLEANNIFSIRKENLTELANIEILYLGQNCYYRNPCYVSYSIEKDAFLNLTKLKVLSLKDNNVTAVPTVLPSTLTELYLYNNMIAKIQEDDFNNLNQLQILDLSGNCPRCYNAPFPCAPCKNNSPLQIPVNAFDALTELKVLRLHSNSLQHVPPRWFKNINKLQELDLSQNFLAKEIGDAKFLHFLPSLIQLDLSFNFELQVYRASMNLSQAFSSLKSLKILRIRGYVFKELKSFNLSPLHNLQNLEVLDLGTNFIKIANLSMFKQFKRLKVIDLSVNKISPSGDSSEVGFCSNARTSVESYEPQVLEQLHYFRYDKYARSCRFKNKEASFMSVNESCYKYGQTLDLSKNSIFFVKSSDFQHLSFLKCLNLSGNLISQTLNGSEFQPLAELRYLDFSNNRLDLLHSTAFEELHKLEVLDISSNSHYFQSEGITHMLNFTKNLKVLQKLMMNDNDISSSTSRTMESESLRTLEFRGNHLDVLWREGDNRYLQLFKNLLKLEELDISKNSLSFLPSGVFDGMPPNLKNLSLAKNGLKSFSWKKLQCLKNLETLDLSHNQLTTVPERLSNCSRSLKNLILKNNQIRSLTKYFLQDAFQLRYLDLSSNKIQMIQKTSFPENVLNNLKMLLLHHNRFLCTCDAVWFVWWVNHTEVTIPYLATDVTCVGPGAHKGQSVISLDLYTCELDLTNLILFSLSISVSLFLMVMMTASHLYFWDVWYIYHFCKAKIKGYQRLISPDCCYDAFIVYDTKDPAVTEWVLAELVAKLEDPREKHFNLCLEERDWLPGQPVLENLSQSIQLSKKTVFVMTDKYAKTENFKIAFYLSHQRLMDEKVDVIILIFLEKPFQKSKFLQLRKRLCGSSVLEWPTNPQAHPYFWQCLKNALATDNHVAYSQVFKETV
Outline: (§1)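 HEK-Blue cells with NF-κB/AP-1-driven SEAP reporter, pre-treated 30 min at room temperature with compound (0.05 nM-50 μM). Stimulants: gardiquimod 7.5 μM (TLR7), R848 15.9 μM (TLR8) or ODN2006 5 nM (TLR9). SEAP measured after 22 h at 37° C.; percent inhibition versus agonist-plus-DMSO and known-inhibitor wells.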

human TLR9 = target: T2, human TLR9 (Homo sapiens, UniProt Q9NR96); experiment: TLR9 inhibition reporter assay (HEK-Blue cells, SEAP reporter, ODN2006 stimulation); settings: HEK-Blue cells overexpressing human TLR9, SEAP reporter, ODN2006 5 nM
T2 construct: host or cells: HEK-Blue cells
T2 sequence (Q9NR96 26-1032): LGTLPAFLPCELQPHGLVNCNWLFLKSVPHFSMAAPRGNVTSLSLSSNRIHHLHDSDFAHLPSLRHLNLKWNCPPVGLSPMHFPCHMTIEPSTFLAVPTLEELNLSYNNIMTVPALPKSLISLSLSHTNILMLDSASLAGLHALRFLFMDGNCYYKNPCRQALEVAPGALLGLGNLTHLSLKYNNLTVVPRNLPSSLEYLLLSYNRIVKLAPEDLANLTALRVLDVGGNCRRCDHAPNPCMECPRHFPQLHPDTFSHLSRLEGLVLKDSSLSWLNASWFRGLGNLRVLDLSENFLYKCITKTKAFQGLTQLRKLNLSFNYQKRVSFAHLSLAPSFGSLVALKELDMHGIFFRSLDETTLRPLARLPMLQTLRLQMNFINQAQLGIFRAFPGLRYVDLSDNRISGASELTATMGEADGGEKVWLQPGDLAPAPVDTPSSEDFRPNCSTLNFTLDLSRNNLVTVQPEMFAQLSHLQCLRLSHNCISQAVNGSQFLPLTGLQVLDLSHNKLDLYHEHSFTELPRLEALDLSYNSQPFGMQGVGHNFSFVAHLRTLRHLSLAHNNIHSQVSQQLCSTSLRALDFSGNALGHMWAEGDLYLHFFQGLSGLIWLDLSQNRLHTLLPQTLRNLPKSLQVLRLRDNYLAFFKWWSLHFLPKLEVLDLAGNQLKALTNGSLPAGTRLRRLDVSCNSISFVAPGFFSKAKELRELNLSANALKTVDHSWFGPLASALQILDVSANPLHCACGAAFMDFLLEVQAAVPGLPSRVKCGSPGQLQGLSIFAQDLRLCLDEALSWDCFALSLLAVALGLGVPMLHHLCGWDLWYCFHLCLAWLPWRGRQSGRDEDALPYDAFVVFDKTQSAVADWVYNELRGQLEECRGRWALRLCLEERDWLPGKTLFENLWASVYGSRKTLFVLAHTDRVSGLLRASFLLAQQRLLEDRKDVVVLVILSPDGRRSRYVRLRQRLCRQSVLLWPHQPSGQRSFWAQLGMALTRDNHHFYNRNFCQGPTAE
Outline: as §1

human TLR8 = target: T3, human TLR8 (Homo sapiens, UniProt Q9NR97); experiment: TLR8 inhibition reporter assay (HEK-Blue cells, SEAP reporter, R848 stimulation); settings: HEK-Blue cells overexpressing human TLR8, SEAP reporter, R848 15.9 μM
T3 construct: host or cells: HEK-Blue cells
T3 sequence (Q9NR97 27-1041): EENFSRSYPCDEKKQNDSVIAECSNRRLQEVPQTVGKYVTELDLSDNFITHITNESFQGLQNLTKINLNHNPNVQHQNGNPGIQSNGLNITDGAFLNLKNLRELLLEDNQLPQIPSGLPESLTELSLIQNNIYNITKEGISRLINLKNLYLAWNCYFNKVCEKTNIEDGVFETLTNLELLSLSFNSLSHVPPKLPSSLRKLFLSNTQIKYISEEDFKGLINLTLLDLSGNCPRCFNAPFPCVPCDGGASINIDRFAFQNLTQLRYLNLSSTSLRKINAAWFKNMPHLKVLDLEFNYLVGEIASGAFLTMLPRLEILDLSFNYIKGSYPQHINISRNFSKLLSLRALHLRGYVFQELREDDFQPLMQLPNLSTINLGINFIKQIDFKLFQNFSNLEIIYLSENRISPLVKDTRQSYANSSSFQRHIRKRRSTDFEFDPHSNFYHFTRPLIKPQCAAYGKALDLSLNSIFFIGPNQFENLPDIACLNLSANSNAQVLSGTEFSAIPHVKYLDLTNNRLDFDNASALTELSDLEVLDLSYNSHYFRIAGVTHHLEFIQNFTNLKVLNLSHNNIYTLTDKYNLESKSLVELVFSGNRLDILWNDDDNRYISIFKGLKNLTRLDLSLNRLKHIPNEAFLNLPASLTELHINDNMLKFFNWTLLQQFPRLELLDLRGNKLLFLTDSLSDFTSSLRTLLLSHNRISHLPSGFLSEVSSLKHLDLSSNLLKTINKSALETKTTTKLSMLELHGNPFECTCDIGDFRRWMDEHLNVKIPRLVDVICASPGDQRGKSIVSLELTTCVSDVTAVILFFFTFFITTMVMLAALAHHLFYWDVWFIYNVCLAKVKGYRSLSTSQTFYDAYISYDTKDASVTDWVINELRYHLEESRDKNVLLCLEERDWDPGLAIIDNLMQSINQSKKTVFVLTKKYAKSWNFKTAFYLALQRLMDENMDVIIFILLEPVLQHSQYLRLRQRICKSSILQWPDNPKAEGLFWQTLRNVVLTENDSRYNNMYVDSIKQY
Outline: as §1

IC50 (human TLR7)	IC50 (human TLR9)	IC50 (human TLR8)	Structure (SMILES)
3 nM	8470 nM	13 nM	CNCC(=O)N1CCCC(c2ccc3[nH]c(-c4cc(OC)c5ncnn5c4)c(C(C)C)c3c2)C1 (stereo not drawn) [Example 212]
4 nM	1190 nM	0.69 nM	COc1cc(-c2[nH]c3ccc(C4CCCN(C5CCOCC5)C4)cc3c2C(C)C)cn2ncnc12 (stereo not drawn) [Example 244]
1 nM	3420 nM	2.9 nM	COc1cc(-c2[nH]c3ccc(C4CN(CCS(C)(=O)=O)C4)cc3c2C(C)C)cn2ncnc12 [Example 265]
3 nM	16800 nM	32 nM	COc1cc(-c2[nH]c3ccc(C4CCC(N5CCNC(=O)C5)CC4)cc3c2C(C)C)cn2ncnc12 (stereo not drawn) [Example 78]
0.49 nM	2830 nM	5.9 nM	COc1cc(-c2[nH]c3ccc(C4CCCN(C(=O)CN(C)C)C4)cc3c2C(C)C)cn2ncnc12 (stereo not drawn) [Example 192]
2 nM	2580 nM	5.7 nM	COCCN(C)C1CCC(c2ccc3[nH]c(-c4cc(OC)c5ncnn5c4)c(C(C)C)c3c2)CC1 (single isomer, unassigned) [Example 79]
4 nM	4730 nM	12 nM	COc1cc(-c2[nH]c3ccc(C4CCCN(CC(N)=O)C4)cc3c2C(C)C)cn2ncnc12 (stereo not drawn) [Example 225]
0.34 nM	1870 nM	2.6 nM	COc1cc(-c2[nH]c3ccc(C4CCCN(C(=O)CN(C)C)C4)cc3c2C(C)C)cn2ncnc12 (stereo not drawn) [Example 191]
0.83 nM	1600 nM	4.1 nM	COc1cc(-c2[nH]c3ccc(C4CCC(NCC(N)=O)CC4)cc3c2C(C)C)cn2ncnc12 (stereo not drawn) [Example 109]
0.79 nM	1620 nM	3.7 nM	CNC1CCC(c2ccc3[nH]c(-c4cc(OC)c5ncnn5c4)c(C(C)C)c3c2)CC1 (single isomer, unassigned) [Example 146, 4-(3-isopropyl-2-(8-methoxy-[1,2,4]triazolo[1,5-a]pyridin-6-yl)-1H-indol-5-yl)-N-methylcyclohexanamine]
2 nM	2330 nM	1.2 nM	COc1cc(-c2[nH]c3ccc(C4CCCN(CC(C)(C)O)C4)cc3c2C(C)C)cn2ncnc12 (stereo not drawn) [Example 249]

The remaining lines, values behind:

Structure (SMILES)	IC50 (human TLR7)	IC50 (human TLR9)	IC50 (human TLR8)
Cc1c(-c2[nH]c3ccc(C4CCC(N(C)C5COC5)CC4)cc3c2C(C)C)cn2cnnc2c1C (stereo not drawn) [Example 528]	2 nM	5600 nM	16 nM
Cc1c(-c2[nH]c3ccc(C4CCC(N5CC6(COC6)C5)CC4)cc3c2C(C)C)cn2ncnc2c1C (stereo not drawn) [Example 95]	2 nM	1820 nM	3.6 nM
COc1cc(-c2[nH]c3ccc(C4CNC(C)(C)CO4)cc3c2C(C)C)cn2ncnc12 (stereo not drawn) [Example 368]	0.45 nM	2480 nM	1.6 nM
Cc1cc(-c2[nH]c3ccc(CCN4CCS(=O)(=O)CC4)cc3c2C(C)C)cn(C)c1=O [Example 402]	108 nM	> 50000 nM	74 nM
Cc1c(-c2[nH]c3ccc(C4CNC4)cc3c2C(C)C)cn2ncnc2c1C [Example 545]	2 nM	2040 nM	3.8 nM
Cc1cc(-c2[nH]c3ccc(C4CN(C(=O)CN(C)C)CCO4)cc3c2C(C)C)cn2ncnc12 (stereo not drawn) [Example 331]	1 nM	3620 nM	4.6 nM
COC1CCC(c2ccc3[nH]c(-c4cc(C)c5ncnn5c4)c(C(C)C)c3c2)CC1 (stereo not drawn) [Example 168, 6-(3-isopropyl-5-(4-methoxycyclohexyl)-1H-indol-2-yl)-8-methyl-[1,2,4]triazolo[1,5-a]pyridine]	15 nM	34400 nM	265 nM
COc1cc(-c2[nH]c3ccc(C4CCC(NC(=O)CN5CCS(=O)(=O)CC5)CC4)cc3c2C(C)C)cn2ncnc12 (stereo not drawn) [Example 144]	3 nM	33300 nM	9.7 nM
COc1cc(-c2[nH]c3ccc(C4CN(C(=O)CN(C)C)CCO4)cc3c2C(C)C)cn2ncnc12 (stereo not drawn) [Example 334]	0.83 nM	2750 nM	3.1 nM
Cc1c(-c2[nH]c3ccc(C4CN(C5COC5)C4)cc3c2C(C)C)cn2cnnc2c1C [Example 540]	19 nM	18600 nM	36 nM
Cc1cc(-c2[nH]c3ccc(C4CCC(N(C)C5CC5)CC4)cc3c2C(C)C)cn2ncnc12 (single isomer, unassigned) [Example 8]	6 nM	3690 nM	16 nM
CC(C)c1c(-c2ccnc3[nH]ncc23)[nH]c2ccc(CCC3CCNCC3)cc12 [Example 421]	14 nM	1100 nM	4 nM
Cc1cc(-c2[nH]c3ccc([C@@H]4C[C@H]4C(=O)N(C)C4CC5CCN4CC5)cc3c2C(C)C)ccn1 (stereo partly drawn) [Example 459]	19 nM	174 nM	10 nM
Cc1cc(-c2[nH]c3ccc(C4CCC(O)CC4)cc3c2C(C)C)ccn1 (stereo not drawn) [Example 173]	46 nM	> 50000 nM	56 nM
